Experimental data reported in PubChem BioAssay (NCI).
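Step 1: Grow cells in 96-well plates. Step 2: Expose to compound for 48 hours at 5 concentrations. Step 3: Interpolate endpoints linearly; if unreached, use highest concentration. The concentration for 50% growth inhibition is given as GI50. The concentration for full growth arrest is given as TGI.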 *1 amine or outer side, *2 acyl side, *3 side chain or, on linkers, in order; H or OH if unused. Where a SMILES comes first, the peptide text is derived from it. [ ]: non-standard residue; d: D form. The star is where a group is joined. ξ: configuration not given here. X15 = CCN(CC)c1ccc2cc(N*)c(=O)oc2c1; dIva = CC[C@@](C)(N)C(=O)O; X14 = O=C(OCCN[*:1])[*:2]; Aib = CC(C)(N)C(=O)O; ξP = O=C(O)C1CCCN1; βAla = NCCC(=O)O

Columns and labels:
Experiment in all cases: NCI anticancer screen, dose series, 48 h
[1] = test system: SK-MEL-28 melanoma
[2] = test system: HCT-116 colon
[3] = test system: RXF 393 renal
[4] = test system: HOP-62 NSCLC
[5] = test system: CCRF-CEM leukemia
[6] = test system: RPMI-8226 leukemia
[7] = test system: 786-0 renal
[8] = test system: SR leukemia

SMILES	GI50 [1] [µM]	TGI [1] [µM]	GI50 [2] [µM]	TGI [2] [µM]	GI50 [3] [µM]	TGI [3] [µM]	GI50 [4] [µM]	TGI [4] [µM]	GI50 [5] [µM]	TGI [5] [µM]	GI50 [6] [µM]	TGI [6] [µM]	GI50 [7] [µM]	TGI [7] [µM]	GI50 [8] [µM]	TGI [8] [µM]
Cn1ccnc1C(=O)/C=C/c1ccc(CC(=O)Nc2ccc(C(F)(F)F)cc2)cc1	2.92	6.25	2.4	4.94	2.72	5.49	> 16.7	> 16.7	0.658	> 16.7	0.869	5.17	1.81	4.07	0.718	9.94
N=C(N)c1ccc(COc2ccccc2OCc2ccc(C(=N)N)cc2)cc1	70	> 100	35.2	> 100			18.9	48.9	33.1	> 100	16.6	99.3	29.8	> 100		
CC(C)(C#N)c1cc(C(=O)Nc2cc(Nc3ncccc3-c3ncnc4nc[nH]c34)ccc2F)cc(C(F)(F)F)c1	0.107		0.242	> 2.35		> 2.89	0.463	> 10		> 10	4.84	> 10		> 6.73		> 10
FC(F)(F)c1ccc(-c2cnc(Cl)nc2NCc2cc(C(F)(F)F)cc(C(F)(F)F)c2)cc1	3.93	> 100	3.32	> 100	3.15	> 100	3.86	> 100	3.82	> 100	3.08	> 100	3.67	> 100	3.67	> 100
Nc1n[nH]c2ccc([C@@H]3Nc4ccc5[nH]ncc5c4[C@H]4C5C=CC(C5)[C@@H]34)cc12 (stereo partly drawn)	1.59	31.9	0.351	3.33	0.11	0.599	0.52	20.7	0.342	> 55.6	0.355	11.5	0.6	16.8	0.144	> 100
CC(C)c1ccc(Nc2nccc(-c3cnn4ncccc34)n2)cc1	0.422	1.6	0.324	4.29	0.28	0.827	0.563	2.59	0.703	> 20.5	0.466	2.56	0.801	4.88	0.234	> 25
COC(=O)C1=C(OC(=O)c2ccc(Cl)cc2)C(C(=O)OC)[C@@]2(O)[C@@H](C(=O)OC)C(c3ccccc3Cl)C[C@@H]1[C@@H]2C(=O)OC (stereo partly drawn)	30.1	> 100	3.17	> 100	2.23	6.96	15.9	> 100	4.3	> 100	8.79	> 100	7.27	> 100	8.11	> 100
CC12CC(OC(=O)[C@]1(C)O)[C@@H]([C@]1(O)CC[C@H]3[C@@H]4C[C@H]5O[C@]56[C@@H](O)C=CC(=O)[C@]6(C)[C@H]4CC[C@@]31C)C2 (stereo partly drawn)		30.2		13.2		8.76		> 100		7.16				10.1		
CCOC(=O)c1nc(Nc2ccc(Cl)cc2)c2ccccc2n1	7.5	17.6	25.1	> 50	7.35	16.8	16.4	> 50			11.8	30.2	10.4	21.4	8.87	> 50
C/C=C/[C@@H]1OC(=O)C2=C[C@@H](O)[C@@H](/C=C/C)O[C@H]21	6.38	12.6	1.3	3.94	6.27	28.8	20	36.2	0.271	5.77	1.14	3.76	2.53	8.36	16.8	> 100
COCCNc1cc(NC(=O)N2CCCc3cc(CN4CCN(C)CC4=O)c(C=O)nc32)ncc1C#N	> 50	> 50	25.6	> 50			> 50	> 50	> 50	> 50	42.4	> 50	29.5	> 50	> 50	> 50
COC(=O)C(F)C(Br)C(=O)OC (stereo not drawn)		34.3		6.09		6.95		35.7		2.29		3.88		6.03		3.27
O=C(OCCBr)c1ccc(Cl)c([N+](=O)[O-])c1	2.51	5.42	14.3	30.4	15.5	29.9	1.91	3.63	15.6	38.7	7.09	19	18.6	34.1	7.9	31.5
O=C(CN1CCN(c2ccccc2)CC1)N1CCN(c2nnc(-c3ccc(Cl)cc3)c(-c3ccc(Cl)cc3)n2)CC1	56.2	> 100	4.26	16.2	9.41	63.3	20.5	75.9	8.08	> 100	3.88	20	11.6	53	1.7	6.62
Cc1c(Cl)cccc1NC1=C(Cl)C(=O)N(Cc2ccccc2)C1=O	15.1	30.7	10.4	22.1	12	32.7	7.65	20.4	0.392	12.5	1.25	26.7	1.9	11		
CC1(C)CC[C@]2(C(=O)N3CCOCC3)CC[C@]3(C)C(=CC[C@@H]4[C@@]5(C)C/C(=C/c6ccncc6)C(=O)C(C)(C)[C@@H]5CC[C@]43C)[C@@H]2C1	1.84	5.41	0.319	2	1.22	3.03	1.76	6.73	0.871	> 100	0.476	3.36	1.66	12.4	0.365	> 100
CCCOC(=O)CCn1c(SC)nc2[nH]cc(-c3ccccc3)c2c1=O	20.3	58.8	15.4	41	19.1	54.8	5.49	88.2	1.37	35.1	12.7	33.6	2.71	> 100		
CC(C)N1C(NNC(=O)c2cnccn2)=NS(=O)(=O)c2ccccc21	> 100	> 100	> 100	> 100	> 100	> 100			1.33	6.3	> 100	> 100	> 100	> 100	> 100	> 100
CCN(CC)c1ccc2cc(NC(=O)OCCNC(=O)CCNC(=O)[C@H](CC(C)C)NC(=O)C(C)(C)NC(=O)C(C)(C)NC(=O)[C@H](CC(C)C)NC(=O)CCNC(=O)C(C)(C)NC(=O)[C@H](CC(C)C)NC(=O)CCNC(=O)[C@@](C)(CC)NC(=O)[C@H](C)NC(=O)CCNC(=O)C(C)(C)NC(=O)[C@H](C)NC(=O)[C@@H]3CCCN3C(=O)[C@@](C)(CC)NC(=O)[C@H](Cc3ccccc3)NC(=O)C3CCCN3C(=O)C(C)(C)NC(=O)C3CCCN3C(=O)C(C)(C)NC(C)=O)c(=O)oc2c1 (stereo partly drawn) (Ac-[Aib][ξP][Aib][ξP]F[dIva]PA[Aib][βAla]A[dIva][βAla]L[Aib][βAla]L[Aib][Aib]L[βAla][X14]-X15)	0.00783	0.0325	0.0035	0.0455	0.0049	0.0173	0.00385	0.021	0.00465	0.0287			0.0102	0.0319	0.00423	0.0235
O=C(COc1cccc(/C=C2\COc3ccc(Cl)cc3C2=O)c1)c1ccc(Cl)cc1	18.3	32.2	3.28	11.3			14.3	27.7	4.72	49	2	5.14	16.1	29.7	1.71	5.11
COc1ccc(-c2nn(-c3cccc(Cl)c3)cc2-c2cc(-c3ccccc3)nc(N)n2)cc1	12.4	42.1			2.64	8.47	2.5	6.41	2.13	6.63	2.65	9.17	4.94	26.4	2.03	5.21
COc1cc(C2C3=C(COC3=O)Nc3cc4c(cc32)CCC4)cc2c1OCO2 (stereo not drawn)	0.0691	24.4	0.0428	1.31			0.0471	12	0.0452	14.6	0.0531	> 49.2	0.0881	14.6	0.0453	> 34.5
CCCCNC(=O)NS(=O)(=O)c1ccc(N2N=C(c3cc(C)ccc3C)CC2c2cc(OC)c(OC)c(OC)c2)cc1 (stereo not drawn)	1.97	4.73			2.61	6.97	3.15	10.2	2.2	6.12	1.95	5.49	3.51	16.1		
CCOc1ccccc1/C=N\N=C(\N)N/N=C/c1ccccc1OCC	4.51	> 100	3.12	> 100	1.26	3.82	5.73	> 100	3.06	> 100	2.82	> 100	4.42	> 100		
O=c1cc(N=Nc2ccc(O)cc2)[nH]c(=O)[nH]1		> 100		> 100		> 100		> 100				> 100		> 100		> 100
Cc1cn2c(/C=N/Nc3ccccn3)c(-c3ccc(Cl)c([N+](=O)[O-])c3)nc2s1	26.5	> 50	8.56	18.4			10.7	18.9			30.2	> 50	18.5	> 50	1.86	10.6
Nc1cc(N)c2nc(-c3ccccc3)c(NCc3ccc(F)cc3)nc2c1	1.9	3.77	12.8	> 100	12.3	27.2	39.1	> 100			2.54	6.25	23.7	62.2	4.11	> 100
Cc1ccc2c(c1)C(=O)c1c-2n(CCCBr)c(=O)c2cc([N+](=O)[O-])ccc12	> 100	> 100	18.7	> 100	> 100	> 100	24.4	> 100	5.29	46.4	19.2	> 100	57.5	> 100		
O=C(CN(/C=C/C(=O)C(F)(F)F)c1ccccc1)c1ccc(Cl)c(Cl)c1	23.9	56.2	12.7	> 100	17.1	52.5	28.3	> 100	11.2	29.2	13.9	40.2	17.6	37.5		
CCN(CC)c1ccc(C(=N)c2ccc(N(C)C)cc2)cc1	0.384	7.13	0.155	3.39	1.18	4.02	1.55	12.2	1.96	97.8			1.71	4.45	0.301	2.8
